Assay [1] relates to cGMP-PDE activity in gametocyte lysates (PDEα, PDEδ). Description: cGMP hydrolysis SPA in stage IV/V gametocyte membrane lysates. It counts as biochemical, Plasmodium falciparum. Particulars: gametocyte lysate; geometric mean ×/÷ geometric SD. As to the method: cGMP signaling is known to play an essential role in gametogenesis in Plasmodium ([19], [20], [28]). We therefore tested the effects of all newly synthesized analogs for their ability to inhibit cGMP hydrolysis in crude gametocyte membrane preparations. […] S5A. These findings were also consistent with our enzyme-linked immunosorbent assay (ELISA)–based measurement of elevated cGMP levels in gametocytes following incubation with an example of each subseries (Fig. 2A). […] The levels of cAMP detected in gametocytes were similar in dimethyl sulfoxide (DMSO)–, XA-, and inhibitor-treated samples, and we could detect little or no cAMP hydrolysis in mature gametocytes (fig. S5B). […]
The cyclic nucleotide hydrolytic activity of membrane-associated parasite PDE enzymes was measured by a scintillation proximity assay (SPA) ([18]) using lysates of mature P. falciparum schizonts or stage IV/V gametocytes. […] The IC50 values for the compounds were determined using threefold serial dilutions in duplicate. […] The reactions were terminated by addition of 25 μl of PDE SPA beads (PerkinElmer, RPNQ0150), and after 20 min of incubation at room temperature, scintillation was measured using a Wallac 1450 Microbeta Counter (PerkinElmer) for 30 s. […]

In the next assay the test system is HepG2 cells. Put plainly: HepG2 cytotoxicity. It counts as cell-based. An excerpt: Table 1. Key activity data for the three main chemical subseries against ABS parasites, parasite fractions, and HepG2 cells. ND, not determined; ×/÷ is the geometric mean with geometric SD. | column: HepG2 EC50 (nM) (selectivity index)
The subject of assay [2] is P. falciparum clinical isolates from Tororo and Busia Districts of Uganda. Put plainly: Ex vivo 72-hour SYBR Green assay, Ugandan clinical isolates. It counts as cell-based, Plasmodium falciparum. As to conditions: 47 Ugandan isolates. An excerpt: Clinical isolates were from the Tororo District of Uganda, located in the central-eastern part of the county near the Kenya border. Tororo and surrounding areas have high-intensity, year-round malaria transmission. […] Patients reporting use of antimalarial treatment within the previous 30 days or with evidence of an infection with other Plasmodium species were excluded. Informed consent was obtained from patients and/or primary care givers (depending on age); children aged 8 to 17 years provided assent. Two to 5 ml of blood was collected by venipuncture in a heparin tube. Samples were delivered to the adjacent IDRC laboratory at Tororo District Hospital or transported by car from Masafu Hospital on the day of collections for storage of blood spots on filter paper (for isolation of nucleic acids) and initiation of ex vivo culture of malaria parasites. Treatment involved a standard therapeutic regimen for uncomplicated falciparum malaria, which was a 3-day course of the artemisinin-based combination therapy (ACT), artemether-lumefantrine. In Uganda, at the time of sampling, there was widespread resistance to the antifolate drugs due to mutant pfdhfr/pfdhps alleles. […] Chloroquine was prepared at 10 mM in water. Stock solutions were stored at −20°C. Working solutions were freshly prepared from a single aliquot within 4 hours of the susceptibility test and stored at 4°C.
(§1) Samples were delivered to the adjacent IDRC laboratory at Tororo District Hospital or transported by car from Masafu Hospital on the day of collection for storage of blood spots on filter paper (for isolation of nucleic acids) and initiation of ex vivo culture of malaria parasites. […] Before assay, 10 mM antimalarial stock compounds were diluted as necessary in DMSO and stored at −20°C. […] Compounds were serially diluted threefold in a 96-well assay plate in complete medium to a final volume of 50 μl, in columns 1 to 10, with concentrations optimized to capture full dose-response curves. Column 11 contained compound-free controls, while column 12 contained uninfected human RBC controls. Parasite culture (150 μl) was added to columns 1 to 11 of the assay plate with a final volume of 200 μl per well, 0.2% parasitemia, and 2% hematocrit. […] Thawed plates were incubated with SYBR Green lysis buffer for 1 hour in the dark as previously reported ([62]). Fluorescence was quantified using a BMG Fluostar Optima plate reader at an excitation of 485 nm and an emission of 530 nm, and data were plotted using GraphPad Prism 7. The data were curve fit with a variable slope function to estimate IC50 values. For each isolate, a Z′ factor to assess assay quality was calculated from positive controls (eight drug-free wells) and negative controls (eight parasite-free, red cell control wells). Z′ values over 0.5 were considered good assays, but each curve was also examined by eye for suitability. Some assays with Z′ below 0.5 may be considered valid depending on factors such as the SE of the curve-fit IC50.

Another assay has as its system P. falciparum 3D7. Put plainly: Ex vivo 72-hour SYBR Green assay, 3D7 control (Uganda). It counts as cell-based, Plasmodium falciparum. As to conditions: Ugandan ex vivo assay control; read-out: EC50 lab strain 3D7. As to the method:
as §1

In another assay the test system is P. falciparum Dd2. Put plainly: Ex vivo 72-hour SYBR Green assay, Dd2 control (Uganda). It counts as cell-based, Plasmodium falciparum. As to conditions: Ugandan ex vivo assay control; read-out: EC50 lab strain Dd2. Here is the method:
as §1

The next assay deals with P. falciparum Dd2-B2. Put plainly: 72-hour flow cytometry EC50 assay, Dd2-B2 parental line. It counts as cell-based, Plasmodium falciparum. As to conditions: Plasmodium falciparum, DD2, read-out: EC50 Dd2-B2 parental line. As to the method:
(§2) Stocks of SAL-0010003 (5-benzyl), SAL-0010355 (5-aryl), and SAL-0010419 (2-alkyl) were made at 10 and 1 mM in DMSO. Aliquots in use were stored at −20°C, and long-term storage was at −80°C. All in vitro studies were done such that the final DMSO concentration was <0.5%. P. falciparum ABS parasites were cultured at 3% hematocrit in human O+ RBCs in RPMI 1640 medium, supplemented with 25 mM Hepes, 50 mg L-hypoxanthine, 2 mM L-glutamine, 0.225% sodium bicarbonate, 0.5% (w/v) AlbuMAX II (Invitrogen) and gentamycin (10 μg/ml), in modular incubator chambers (Billups-Rothenberg) at 5% O2, 5% CO2, and 90% N2 at 37°C. Dd2-B2 (obtained from T. Wellems, National Institute of Allergy and Infectious Diseases, National Institutes of Health) is a genetically homogenous line that was cloned from Dd2 by limiting dilution. To define the EC50 and EC90 values of ABS parasites, Dd2-B2 ring-stage cultures at 0.2% parasitemia and 1% hematocrit were exposed for 72 hours to a range of 10 drug concentrations that were twofold serially diluted in duplicates along with drug-free controls. Parasite survival was assessed by flow cytometry on an iQue flow cytometer (Sartorius) using SYBR Green and MitoTracker Deep Red FM (Life Technologies) as nuclear stain and vital dyes, respectively. After determination of the EC50 and EC90 values for the three compounds with the P. falciparum Dd2-B2 clone, one single-step selection was set up using 2 × 10^5 parasites in each well of a 96-well plate at a starting concentration of 3× EC90. Parasites were cleared from the culture rapidly, and cultures were screened three times weekly by flow cytometry and counted as positive for recrudescence when the overall parasitemia reached 0.3% and the parasites were visible on a blood smear. DNA was extracted from recrudescent lines using a QIAGEN QIAamp Blood Mini Kit, and libraries were prepared with the Illumina DNA Prep kit for whole-genome sequencing on the Illumina MiSeq using a V3 2 × 300–base pair flow cell.
(In flow cytometry, cells or beads pass a laser one at a time.)

In assay [3] the test system is P. falciparum Dd2-B2 lines selected under drug pressure. Put plainly: 72-hour flow cytometry EC50 assay, lines selected under drug pressure. It counts as cell-based, Plasmodium falciparum. As to conditions: for EC50: Plasmodium falciparum. As to the method: Three examples of an additional compound series developed independently [NPD-2958, NPD-3518 ([31]), and NPD-3738; fig.
as §2

Where two headings read alike, the source gives them in different places. Some results are limits rather than exact numbers.

In assay [1], `CCNC(=O)c1cnc(OCC(C)C)c(-c2nc3c(C(C)C)n[nH]c3c(=O)[nH]2)c1` [SAL-0010333] displayed a concentration for half-maximal inhibition (IC50) of 0.0772 ± 0.0018 µM. Moreover, the EC50 is > 25 µM in the assay on HepG2 cells; 0.167 µM in assay [2] (read-out: EC50 clinical isolates, Gmean (geometric mean)); 0.16 µM in assay [2] (read-out: EC50 clinical isolates, Median); 0.223 µM with P. falciparum 3D7; 0.181 µM with P. falciparum Dd2.

Turning to `CCc1c2nc(-c3cc(-c4cccnc4)cnc3OCC(C)C)[nH]c(=O)c2nn1CCOC` [SAL-0010419], the IC50 in assay [1] was > 10 µM. Besides, the 50% effective concentration (EC50) in the assay with P. falciparum Dd2-B2 is 0.0614 µM; in assay [3] (DD2, read-out: EC50, line selected with SAL-0010419, Well C4), 0.359 µM; in assay [3] (DD2, read-out: EC50, line selected with SAL-0010419, Well E11), 0.344 µM; in assay [3] (DD2, read-out: EC50, line selected with SAL-0010419, Well F8), 0.293 µM. In assay [3] (selected lines vs Dd2-B2 parental line, ±SD), the “Mean fold change in EC50” value is listed as 5.4 ± 0.6 fold. Moreover, the “EC50 shift, line selected with SAL-0010419, Well C4” value in assay [3] (vs Dd2-B2) was determined as 5.9 fold. In addition, the “EC50 shift, line selected with SAL-0010419, Well E11” value in assay [3] (vs Dd2-B2) was 5.6 fold. Also, the “EC50 shift, line selected with SAL-0010419, Well F8” value in assay [3] (vs Dd2-B2) was found to be 4.8 fold.

By IC50 is commonly meant the concentration that inhibits the measured activity by half. Lower therefore signals higher potency. One may read the EC50 as the concentration that produces a half-maximal response.

For the origin of these results see article PMC11623267, “Inhibitors of malaria parasite cyclic nucleotide phosphodiesterases block asexual blood-stage development and mosquito transmission” (Science Advances, 2024).
